As usually defined, the IC50 is the concentration needed to halve the response being measured. The low end stands for greater potency, the high end for weaker potency.

The target of the assay is USP1 (construct USP1 (I-785, GG670, 671AA)/UAF1 (I-677)-Flag) (Homo sapiens (Human), UniProt O94782, G670A/G671A). As to the kind of experiment: Ubiquitin-Rhodamine 110 assay for USP1 activity. Type of assay: biochemical. Particulars: USP1/UAF1 25 pM, Ub-Rh110 25 nM, 30 min preincubation. On the procedure: Example 53: Ubitquin-Rhodamine 110 Assay for USP1 Activity
The HTS assay was performed in a final volume of 20 μL in assay buffer containing 20 mM Tris-HCl (pH 8.0, (1M Tris-HCl, pH 8.0 solution; Corning 46-031-CM)), 2 mM CaCl2 (1M Calcium Chloride solution; Sigma #21114) 1 mM GSH (L-Glutathione reduced; Sigma #G4251), 0.01% Prionex ([…] filtered, Sigma #G-0411), and 0.01% Triton X-100. Stock compound solutions were stored at −20° C. as 10 mM in DMSO. Up to 1 month prior to the assay, 2 mM test compounds were pre-dispensed into assay plates (Black, low volume; Corning #3820) and frozen at −20° C. Prestamped assay plates were allowed to come to room temperature on the day of the assay. For the screen, 100 nL of 2 mM was pre-dispensed for a final screening concentration of […] (DMSO(fc)=0.5%). The final concentration of the enzyme (USP1, construct USP1 (I-785, GG670, 671AA)/UAF1 (I-677)-Flag; Viva) in the assay was 100 pM. Final substrate (Ub-Rh110; Ubiquitin-Rhodamine 110, R&D Systems #U-555) concentration was 25 nM with [Ub-Rh110]<<Km. […] Plates were incubated stacked for 45 minutes at room temperature before fluorescence was read on the Envision (Excitation at 485 nm and Emission at 535 nm; Perkin Elmer) or on the PheraSTAR (Excitation at 485 nm and Emission at 535 nm; BMG Labtech)
Nanoliter quantities of either an 8-point or 10-point, 3-fold serial dilution in DMSO was pre-dispensed into assay plates (Perkin Elmer, ProxiPlate-384 F Plus, #6008269) for a final test concentration range of either 25 μM to 11 nM or 25 μM to 1.3 nM, respectively. The final concentration of the enzyme (USP1, construct USP1 (I-785, GG670, 671AA)/UAF1 (I-677)-Flag; Viva) in the assay was 25 pM. Final substrate (Ub-Rh110; Ubiquitin-Rhodamine 110, R&D Systems #U-555) concentration was 25 nM with [Ub-Rh110]<<Km. […] Plates were incubated stacked for 20 minutes at room temperature before 5 μL of stop solution (final concentration of 10 mM citric acid in assay buffer (Sigma, #251275-500G)). Fluorescence was read on the Envision (Excitation at 485 nm and Emission at 535 nm; Perkin Elmer) or on the PheraSTAR (Excitation at 485 nm and Emission at 535 nm; BMG Labtech).
For both assay formats data were reported as percent inhibition compared with control wells based on the following equation: % inh=[1−((FLU−AveLow)/(AveHigh−AveLow))]×100 where FLU=measured Fluorescence, AveLow=average Fluorescence of no enzyme control (n=16), and AveHigh=average Fluorescence of DMSO control (n=16). IC50 values were determined by curve fitting of the standard 4 parameter logistic fitting algorithm included in the Activity Base software package: IDBS XE Designer Model205. Data is fitted using the Levenburg Marquardt algorithm.

Chain of USP1 (construct USP1 (I-785, GG670, 671AA)/UAF1 (I-677)-Flag) (O94782 whole entry G670A/G671A): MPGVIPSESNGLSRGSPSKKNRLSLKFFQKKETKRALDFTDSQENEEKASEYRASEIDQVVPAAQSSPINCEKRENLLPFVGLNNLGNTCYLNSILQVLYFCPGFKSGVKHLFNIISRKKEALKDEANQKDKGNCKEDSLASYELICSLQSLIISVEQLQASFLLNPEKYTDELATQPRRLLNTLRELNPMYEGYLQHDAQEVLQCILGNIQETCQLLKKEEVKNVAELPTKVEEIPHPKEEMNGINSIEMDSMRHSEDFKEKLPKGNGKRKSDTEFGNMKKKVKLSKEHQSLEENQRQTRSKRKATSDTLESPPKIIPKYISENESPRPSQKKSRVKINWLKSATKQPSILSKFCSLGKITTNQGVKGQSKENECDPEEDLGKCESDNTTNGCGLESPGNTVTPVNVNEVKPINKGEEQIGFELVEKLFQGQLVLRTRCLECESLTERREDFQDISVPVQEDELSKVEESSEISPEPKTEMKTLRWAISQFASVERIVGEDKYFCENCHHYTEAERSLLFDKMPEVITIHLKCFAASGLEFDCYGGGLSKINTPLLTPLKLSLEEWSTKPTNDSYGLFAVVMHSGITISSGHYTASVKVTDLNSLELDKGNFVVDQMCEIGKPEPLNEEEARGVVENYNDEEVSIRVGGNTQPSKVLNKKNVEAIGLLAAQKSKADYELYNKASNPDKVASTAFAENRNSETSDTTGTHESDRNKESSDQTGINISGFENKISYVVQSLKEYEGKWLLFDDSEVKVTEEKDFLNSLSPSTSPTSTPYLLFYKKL
Chain of USP1 (construct USP1 (I-785, GG670, 671AA)/UAF1 (I-677)-Flag) (Q8TAF3 whole entry partner): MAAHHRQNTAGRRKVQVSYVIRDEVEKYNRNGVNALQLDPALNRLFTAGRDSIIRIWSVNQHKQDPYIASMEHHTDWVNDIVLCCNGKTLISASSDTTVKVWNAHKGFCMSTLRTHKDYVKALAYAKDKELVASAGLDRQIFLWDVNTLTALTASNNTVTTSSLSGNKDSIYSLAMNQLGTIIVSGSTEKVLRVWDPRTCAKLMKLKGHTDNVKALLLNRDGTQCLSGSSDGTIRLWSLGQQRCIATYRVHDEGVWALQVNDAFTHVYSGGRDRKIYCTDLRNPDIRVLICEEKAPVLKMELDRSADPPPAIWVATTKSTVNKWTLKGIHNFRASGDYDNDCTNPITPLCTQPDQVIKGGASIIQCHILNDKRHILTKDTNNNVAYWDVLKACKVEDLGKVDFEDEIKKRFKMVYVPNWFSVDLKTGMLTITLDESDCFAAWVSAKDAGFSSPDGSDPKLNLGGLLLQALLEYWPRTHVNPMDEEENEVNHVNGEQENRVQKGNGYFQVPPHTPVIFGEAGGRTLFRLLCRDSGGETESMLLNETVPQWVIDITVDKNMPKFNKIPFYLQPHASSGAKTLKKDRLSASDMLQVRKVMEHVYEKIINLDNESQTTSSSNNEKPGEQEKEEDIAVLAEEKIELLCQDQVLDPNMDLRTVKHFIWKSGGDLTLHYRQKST

Regarding `CC(C)c1ncccc1-c1ncc2c(n1)n(Cc1ccc(-c3nc(C(F)(F)F)cn3C)c(F)c1)c(=O)n2C` [Compound I-126, 9-(3-fluoro-4-(1-methyl-4-(trifluoromethyl)-1H-imidazol-2-yl)benzyl)-2-(2-isopropylpyridin-3-yl)-7-methyl-7,9-dihydro-8H-purin-8-one], the IC50 is under 50 nM.

`COCCN(C)C(=O)c1ccc(Cn2c(=O)[nH]c3cnc(-c4ccccc4C(C)C)nc32)cc1` [Compound I-407, 4-((2-(2-isopropylphenyl)-8-oxo-7,8-dihydro-9H-purin-9-yl)methyl)-N-(2-methoxyethyl)-N-methylbenzamide] yielded an IC50 of 50 to 200 nM.

The compound `CC(C)c1ccccc1-c1ncc2[nH]c(=O)n(Cc3ccc(-n4ccc(C5CCCN(C)C5)n4)cc3)c2n1` (stereo not shown) [Compound I-444, 2-(2-isopropylphenyl)-9-(4-(3-(1-methylpiperidin-3-yl)-1H-pyrazol-1-yl)benzyl)-7,9-dihydro-8H-purin-8-one] registered an IC50 of under 50 nM.

For the compound `Cc1coc(-c2ccc(Cn3c(=O)n(C)c4cnc(-c5ccccc5C(C)C)nc43)cc2)n1` [Compound I-290, 2-(2-isopropylphenyl)-7-methyl-9-(4-(4-methyloxazol-2-yl)benzyl)-7,9-dihydro-8H-purin-8-one], the IC50 is under 50 nM.

For `CC(=O)c1nc(-c2ccccc2C(C)C)nc2c1[nH]c(=O)n2Cc1ccc(-c2nc(C(F)(F)F)cn2C)cc1` [Compound I-534, 6-Acetyl-2-(2-isopropylphenyl)-9-(4-(1-methyl-4-(trifluoromethyl)-1H-imidazol-2-yl)benzyl)-7,9-dihydro-8H-purin-8-one], the IC50 was 50 to 200 nM.

`CC(C)c1ccccc1-c1ncc2[nH]c(=O)n(Cc3ccc(-n4cc(CCO)nn4)cc3)c2n1` [Compound I-342, 9-(4-(4-(2-hydroxyethyl)-1H-1,2,3-triazol-1-yl)benzyl)-2-(2-isopropylphenyl)-7,9-dihydro-8H-purin-8-one] gave an IC50 of 200 to 2000 nM.

`COCCn1c(=O)n(Cc2ccc(-c3nc(C(F)(F)F)cn3C)cc2)c2nc(-c3cccnc3C(C)C)ncc21` [Compound I-120, 2-(2-isopropylpyridin-3-yl)-7-(2-methoxyethyl)-9-(4-(1-methyl-4-(trifluoromethyl)-1H-imidazol-2-yl)benzyl)-7,9-dihydro-8H-purin-8-one]: the IC50 was under 50 nM.

In turn, `CC(C)c1ccccc1-c1ncc2c(n1)n(Cc1ccc(-c3nc(C(N)=O)n(C)n3)cc1)c(=O)n2C` [Compound I-278, 3-(4-((2-(2-isopropylphenyl)-7-methyl-8-oxo-7,8-dihydro-9H-purin-9-yl)methyl)phenyl)-1-methyl-1H-1,2,4-triazole-5-carboxamide] came in with an IC50 of 50 to 200 nM.

As to `Cn1cc(C(F)(F)F)nc1-c1ccc(Cn2c(=O)n(C3CC3)c3cnc(-c4ccccc4C4CC4)nc32)cc1` [Compound I-100, 7-cyclopropyl-2-(2-cyclopropylphenyl)-9-(4-(1-methyl-4-(trifluoromethyl)-1H-imidazol-2-yl)benzyl)-7,9-dihydro-8H-purin-8-one], the IC50 was under 50 nM.

Compound `CC(C)NC(=O)c1ccc(Cn2c(=O)[nH]c3cnc(-c4ccccc4C(C)C)nc32)cc1` [Compound I-356, N-isopropyl-4-((2-(2-isopropylphenyl)-8-oxo-7,8-dihydro-9H-purin-9-yl)methyl)benzamide] displayed an IC50 of under 50 nM.

The compound `CC(C)c1ncccc1-c1ncc2c(n1)n(Cc1c(F)cc(-c3nc(C(F)(F)F)cn3C)cc1F)c(=O)n2C` [Compound I-128, 9-(2,6-difluoro-4-(1-methyl-4-(trifluoromethyl)-1H-imidazol-2-yl)benzyl)-2-(2-isopropylpyridin-3-yl)-7-methyl-7,9-dihydro-8H-purin-8-one] gave an IC50 of 50 to 200 nM.

As for `CC(C)c1ccccc1-c1ncc2[nH]c(=O)n([C@H](C)c3ccc(-c4nc(C(F)(F)F)cn4C)cc3)c2n1` [Compound I-214, (R)-2-(2-isopropylphenyl)-9-(1-(4-(1-methyl-4-(trifluoromethyl)-1H-imidazol-2-yl)phenyl)ethyl)-7,9-dihydro-8H-purin-8-one], the IC50 is under 50 nM.

As for `CC(=O)N1CCC(c2cn(C)c(-c3ccc(Cn4c(=O)[nH]c5cnc(-c6ccccc6C(C)C)nc54)cc3)n2)CC1` [Compound I-472, 9-(4-(4-(1-acetylpiperidin-4-yl)-1-methyl-1H-imidazol-2-yl)benzyl)-2-(2-isopropylphenyl)-7,9-dihydro-8H-purin-8-one], the IC50 was under 50 nM.

Take `O=c1[nH]c2cnc(-c3cccnc3OC(F)F)nc2n1Cc1ccc(-n2nccn2)cc1` [Compound I-4, 9-(4-(2H-1,2,3-triazol-2-yl)benzyl)-2-(2-(difluoromethoxy)pyridin-3-yl)-7,9-dihydro-8H-purin-8-one]: the IC50 is over 2000 nM.

The compound `CC(C)c1ccccc1-c1ncc2[nH]c(=O)n(Cc3ccc(C(=O)NCc4ccc(F)cc4)cc3)c2n1` [Compound I-354, N-(4-fluorobenzyl)-4-((2-(2-isopropylphenyl)-8-oxo-7,8-dihydro-9H-purin-9-yl)methyl)benzamide] returned an IC50 of 50 to 200 nM.

For `CC(C)c1ccccc1-c1ncc2[nH]c(=O)n(Cc3ccc(-n4ccnn4)cc3)c2n1` [Compound I-139, 9-(4-(1H-1,2,3-triazol-1-yl)benzyl)-2-(2-isopropylphenyl)-7,9-dihydro-8H-purin-8-one], the IC50 lay within 50 to 200 nM.

Compound `CC(C)c1ncccc1-c1ncc2c(n1)n(C1(c3ccc(-c4nc(C(F)(F)F)cn4C)cc3)CC1)c(=O)n2C` [Compound I-108, 2-(2-isopropylpyridin-3-yl)-7-methyl-9-(1-(4-(1-methyl-4-(trifluoromethyl)-1H-imidazol-2-yl)phenyl)cyclopropyl)-7,9-dihydro-8H-purin-8-one] came in with an IC50 of under 50 nM.

As to `CC(C)c1ccccc1-c1ncc2[nH]c(=O)n(Cc3ccc(-n4ccc(C5CCN(C)CC5)n4)cc3)c2n1` [Compound I-439, 2-(2-isopropylphenyl)-9-(4-(3-(1-methylpiperidin-4-yl)-1H-pyrazol-1-yl)benzyl)-7,9-dihydro-8H-purin-8-one], the IC50 is 50 to 200 nM.

In turn, `CC(C)c1ccccc1-c1ncc2[nH]c(=O)n(Cc3ccc(-n4cc(C5CC5)nn4)cc3)c2n1` [Compound I-343, 9-(4-(4-cyclopropyl-1H-1,2,3-triazol-1-yl)benzyl)-2-(2-isopropylphenyl)-7,9-dihydro-8H-purin-8-one] came in with an IC50 of 50 to 200 nM.

Compound `CC(C)c1ccccc1-c1ncc2[nH]c(=O)n(Cc3cccc(-n4cccn4)c3)c2n1` [Compound I-197, 9-(3-(1H-pyrazol-1-yl)benzyl)-2-(2-isopropylphenyl)-7,9-dihydro-8H-purin-8-one] had an IC50 of 50 to 200 nM.

`CCn1c(=O)n(Cc2ccc(-c3nc(C(F)(F)F)cn3C)cc2)c2nc(-c3cccnc3C(C)C)ncc21` [Compound I-507, 7-Ethyl-2-(2-isopropylpyridin-3-yl)-9-(4-(1-methyl-4-(trifluoromethyl)-1H-imidazol-2-yl)benzyl)-7,9-dihydro-8H-purin-8-one] had an IC50 of under 50 nM.

`CC(C)c1ccccc1-c1ncc2[nH]c(=O)n(Cc3ccc(C(=O)N4CCC[C@H]4C)cc3)c2n1` [Compound I-369, (R)-2-(2-isopropylphenyl)-9-(4-(2-methylpyrrolidine-1-carbonyl)benzyl)-7,9-dihydro-8H-purin-8-one] gave an IC50 of under 50 nM.

Values taken from US10189841B2, “Purinones as ubiquitin-specific protease 1 inhibitors” (Forma Therapeutics, Inc., priority 2015, dated 2019).
